Reference: US20240226228A1, “ANTIMICROBIAL PEPTOID HAVING IMPROVED SELECTIVITY AND ANTIMICROBIAL COMPOSITION COMPRISING SAME” (priority 2021, published 2024)
Where a SMILES comes first, the peptide text is derived from it. [ ]: non-standard residue; d: D form. Gly(N(CH2)2(3-indolyl)) = O=C(O)CNCCc1c[nH]c2ccccc12; Nspe = C[C@H](NCC(=O)O)c1ccccc1; Nphe = O=C(O)CNCc1ccccc1; Nlys = NCCCCNCC(=O)O

Tested on: red blood cells
Experiment: Hemolysis assay
Format: cell-based, Sprague-Dawley mouse
Method: To confirm cytotoxicity by the hemolytic activity of each peptoid synthesized in Example 1, hemolysis analysis was performed. The used blood was collected from a 13-week-old male Sprague-Dawley […] in a tube containing 158 UPS sodium heparin for preventing coagulation, and centrifuged at 4° C. for 10 minutes at 1,000 rpm. Afterward, the plasma was carefully removed, red blood cells were washed with phosphate-buffered saline (PBS: a mixed solution of 35 mM phosphate-buffered solution/150 mM NaCl, pH 7.4) three times and centrifuged at 1,000 rpm for 10 minutes. A 10% (v/v) red blood cell solution diluted in PBS was dispensed at 150 μL into a 96-well plate (microtiter plate), a peptoid solution was added at 50 μL, and 1% Triton X-100 was added. Afterward, the red blood cells were incubated at 37° C. for 1 hour, and the incubated 96-well plate was centrifuged at 1,000 rpm for 15 minutes. A supernatant was obtained and transferred to a new 96-well plate at 150 μL, and absorbance was measured using a spectrophotometer at 540 nm. Percent hemolysis may be calculated by the following Equation 1, and the corresponding results are shown in Tables 11 to 13. % Hemolysis=(A−C)/(B−C)×100 [Equation 1] In Equation 1, A is the absorbance of the peptoid solution at 540 nm, B is the absorbance of the 0.1% Triton X-100 at 540 nm, and C is the absorbance of the PBS solution at 540 nm.

Compound	HC10 [µM]	HC50 [µM]	Hmax (100 μM) [%]
C[C@@H](c1ccccc1)N(CC(N)=O)C(=O)CN(C(=O)CN(CCCCN)C(=O)CN(C(=O)CN(C(=O)CN(CCCCN)C(=O)CN(C(=O)CN(C(=O)CN(CCCCN)C(=O)CN(C(=O)CN(C(=O)CN(CCCCN)C(=O)CNCCc1c[nH]c2ccccc12)[C@@H](C)c1ccccc1)[C@@H](C)c1ccccc1)[C@@H](C)c1ccccc1)[C@@H](C)c1ccccc1)[C@@H](C)c1ccccc1)[C@@H](C)c1ccccc1)[C@@H](C)c1ccccc1 [Peptoid 3]	6.3	13.9	100.5 ± 9.9
C[C@@H](c1ccccc1)N(CC(=O)N(CCCCN)CC(=O)N(CC(=O)N(CC(=O)N(CCCCN)CC(=O)N(CC(=O)N(CC(=O)N(CCCCN)CC(=O)N(CC(=O)N(CC(=O)N(CCc1c[nH]c2ccccc12)CC(N)=O)[C@@H](C)c1ccccc1)[C@@H](C)c1ccccc1)[C@@H](C)c1ccccc1)[C@@H](C)c1ccccc1)[C@@H](C)c1ccccc1)[C@@H](C)c1ccccc1)C(=O)CN(C(=O)CNCCCCN)[C@@H](C)c1ccccc1 [Peptoid 4] (H-[Nlys][Nspe][Nspe][Nlys][Nspe][Nspe][Nlys][Nspe][Nspe][Nlys][Nspe][Nspe][Gly(N(CH2)2(3-indolyl))]-NH2)	< 6.3	6.7	103.2 ± 0.9
C[C@@H](c1ccccc1)N(CC(=O)N(CCCCN)CC(=O)N(CC(=O)N(CC(=O)N(CCCCN)CC(=O)N(CC(=O)N(CC(=O)N(CCCCN)CC(=O)N(CC(=O)N(CC(=O)N(CCc1c[nH]c2ccccc12)CC(N)=O)[C@@H](C)c1ccccc1)[C@@H](C)c1ccccc1)[C@@H](C)c1ccccc1)[C@@H](C)c1ccccc1)[C@@H](C)c1ccccc1)[C@@H](C)c1ccccc1)C(=O)CN(C(=O)CN(CCCCN)C(=O)CNCCc1c[nH]c2ccccc12)[C@@H](C)c1ccccc1 [Peptoid 5] (H-[Gly(N(CH2)2(3-indolyl))][Nlys][Nspe][Nspe][Nlys][Nspe][Nspe][Nlys][Nspe][Nspe][Nlys][Nspe][Nspe][Gly(N(CH2)2(3-indolyl))]-NH2)	< 6.3	15.3	108.1 ± 2.7
C[C@@H](c1ccccc1)N(CC(N)=O)C(=O)CN(C(=O)CN(CCCCN)C(=O)CN(C(=O)CN(C(=O)CN(CCCCN)C(=O)CN(C(=O)CN(C(=O)CN(CCCCN)C(=O)CN(C(=O)CN(C(=O)CN(CCCCN)C(=O)CN(CCc1c[nH]c2ccccc12)C(=O)CNCCc1c[nH]c2ccccc12)[C@@H](C)c1ccccc1)[C@@H](C)c1ccccc1)[C@@H](C)c1ccccc1)[C@@H](C)c1ccccc1)[C@@H](C)c1ccccc1)[C@@H](C)c1ccccc1)[C@@H](C)c1ccccc1 [Peptoid 6]	9.6	22.0	101.6 ± 5.8
C[C@@H](c1ccccc1)N(CC(N)=O)C(=O)CN(C(=O)CN(CCCCN)C(=O)CN(CCc1c[nH]c2ccccc12)C(=O)CN(C(=O)CN(CCCCN)C(=O)CN(C(=O)CN(C(=O)CN(CCCCN)C(=O)CN(C(=O)CN(C(=O)CNCCCCN)[C@@H](C)c1ccccc1)[C@@H](C)c1ccccc1)[C@@H](C)c1ccccc1)[C@@H](C)c1ccccc1)[C@@H](C)c1ccccc1)[C@@H](C)c1ccccc1 [Peptoid 8]	12.8	28.4	105.1 ± 2.2
C[C@@H](c1ccccc1)N(CC(N)=O)C(=O)CN(C(=O)CN(CCCCN)C(=O)CN(C(=O)CN(CCCCN)C(=O)CN(CCCCN)C(=O)CN(C(=O)CN(C(=O)CN(CCCCN)C(=O)CN(C(=O)CN(C(=O)CN(CCCCN)C(=O)CN(CCc1c[nH]c2ccccc12)C(=O)CNCCc1c[nH]c2ccccc12)[C@@H](C)c1ccccc1)[C@@H](C)c1ccccc1)[C@@H](C)c1ccccc1)[C@@H](C)c1ccccc1)[C@@H](C)c1ccccc1)[C@@H](C)c1ccccc1 [Peptoid 35]	20.4	63.0	82.6 ± 3.2
C[C@@H](c1ccccc1)N(CC(N)=O)C(=O)CN(C(=O)CN(CCCCN)C(=O)CN(C(=O)CN(C(=O)CN(CCCCN)C(=O)CN(C(=O)CN(C(=O)CN(CCCCN)C(=O)CN(C(=O)CN(CCCCN)C(=O)CN(CCCCN)C(=O)CN(CCc1c[nH]c2ccccc12)C(=O)CNCCc1c[nH]c2ccccc12)[C@@H](C)c1ccccc1)[C@@H](C)c1ccccc1)[C@@H](C)c1ccccc1)[C@@H](C)c1ccccc1)[C@@H](C)c1ccccc1)[C@@H](C)c1ccccc1 [Peptoid 36]	15.3	39.4	89.1 ± 3.4
C[C@@H](c1ccccc1)N(CC(=O)N(CCCCN)CC(=O)N(CC(=O)N(CC(=O)N(CCCCN)CC(=O)N(CC(=O)N(CC(=O)N(CCCCN)CC(=O)N(CC(=O)N(CC(=O)N(CC(N)=O)Cc1ccccc1)[C@@H](C)c1ccccc1)[C@@H](C)c1ccccc1)[C@@H](C)c1ccccc1)[C@@H](C)c1ccccc1)[C@@H](C)c1ccccc1)[C@@H](C)c1ccccc1)C(=O)CN(C(=O)CN(CCCCN)C(=O)CNCc1ccccc1)[C@@H](C)c1ccccc1 [Peptoid 42] (H-[Nphe][Nlys][Nspe][Nspe][Nlys][Nspe][Nspe][Nlys][Nspe][Nspe][Nlys][Nspe][Nspe][Nphe]-NH2)	< 3.1	6.6	105.9 ± 1.1
C[C@@H](c1ccccc1)N(CC(N)=O)C(=O)CN(C(=O)CN(CCCCN)C(=O)CN(C(=O)CN(C(=O)CN(CCCCN)C(=O)CN(C(=O)CN(C(=O)CN(CCCCN)C(=O)CN(C(=O)CN(C(=O)CN(CCCCN)C(=O)CN(Cc1ccccc1)C(=O)CNCc1ccccc1)[C@@H](C)c1ccccc1)[C@@H](C)c1ccccc1)[C@@H](C)c1ccccc1)[C@@H](C)c1ccccc1)[C@@H](C)c1ccccc1)[C@@H](C)c1ccccc1)[C@@H](C)c1ccccc1 [Peptoid 43]	< 3.1	6.4	105.6 ± 3.8
C[C@@H](c1ccccc1)N(CC(N)=O)C(=O)CN(CCCCN)C(=O)CN(C(=O)CN(C(=O)CN(CCCCN)C(=O)CN(C(=O)CN(C(=O)CN(CCCCN)C(=O)CN(C(=O)CN(CCCCN)C(=O)CN(CCCCN)C(=O)CN(C(=O)CNCCc1c[nH]c2ccccc12)[C@@H](C)c1ccccc1)[C@@H](C)c1ccccc1)[C@@H](C)c1ccccc1)[C@@H](C)c1ccccc1)[C@@H](C)c1ccccc1)[C@@H](C)c1ccccc1 [Peptoid 61]	19.3	65.4	79.9 ± 0.7
C[C@@H](c1ccccc1)N(CC(N)=O)C(=O)CN(CCCCN)C(=O)CN(C(=O)CN(C(=O)CN(CCCCN)C(=O)CN(C(=O)CN(CCCCN)C(=O)CN(CCCCN)C(=O)CN(C(=O)CN(C(=O)CN(CCCCN)C(=O)CN(C(=O)CNCCc1c[nH]c2ccccc12)[C@@H](C)c1ccccc1)[C@@H](C)c1ccccc1)[C@@H](C)c1ccccc1)[C@@H](C)c1ccccc1)[C@@H](C)c1ccccc1)[C@@H](C)c1ccccc1 [Peptoid 62]	36.2	> 100	44.8 ± 8.1
C[C@@H](c1ccccc1)N(CC(N)=O)C(=O)CN(CCCCN)C(=O)CN(C(=O)CN(CCCCN)C(=O)CN(CCCCN)C(=O)CN(C(=O)CN(C(=O)CN(CCCCN)C(=O)CN(C(=O)CN(C(=O)CN(CCCCN)C(=O)CN(C(=O)CNCCc1c[nH]c2ccccc12)[C@@H](C)c1ccccc1)[C@@H](C)c1ccccc1)[C@@H](C)c1ccccc1)[C@@H](C)c1ccccc1)[C@@H](C)c1ccccc1)[C@@H](C)c1ccccc1 [Peptoid 63]	85.0	> 100	12.7 ± 0.9
C[C@@H](c1ccccc1)N(CC(=O)N(CCCCN)CC(=O)N(CC(=O)N(CC(=O)N(CCCCN)CC(=O)N(CC(=O)N(CC(=O)N(CCCCN)CC(=O)N(CC(=O)N(CC(=O)N(CCCCN)CC(=O)N(CCCCN)CC(N)=O)[C@@H](C)c1ccccc1)[C@@H](C)c1ccccc1)[C@@H](C)c1ccccc1)[C@@H](C)c1ccccc1)[C@@H](C)c1ccccc1)[C@@H](C)c1ccccc1)C(=O)CNCCc1c[nH]c2ccccc12 [Peptoid 64] (H-[Gly(N(CH2)2(3-indolyl))][Nspe][Nlys][Nspe][Nspe][Nlys][Nspe][Nspe][Nlys][Nspe][Nspe][Nlys][Nlys]-NH2)	70.7	> 100	18.9 ± 2.9
